# Reference: patent US10292981B2, “Oxazoline and isoxazoline derivatives as CRAC modulators” (LUPIN LIMITED, priority 2010, dated 2019)
# System: IL-2 secretion, Jurkat T cells
# Experiment: Inhibition of IL-2 secretion (PHA-stimulated Jurkat T cells, ELISA)
# Type: cell-based
# Conditions: Homo sapiens; Jurkat T cells stimulated with PHA, 20 to 24 hours
# Method: The CRAC channel modulatory activity of the compounds were thus evaluated by measuring the secretion of IL-2 by antigen stimulated T-cells in vitro. Alternatively, such activity can also be evaluated by assay methods known to one skilled in the art.
# Inhibition of IL-2 secretion: Jurkat T cells were seeded at a density of 0.5 to 1 million cells per well in RPMI medium. Test compounds from this invention were added to the cells at different concentrations. This was followed by the addition of PHA, a T cell mitogen after 10 minutes.
# The cells were then incubated for 20 to 24 hours in a CO2 incubator at 37° C. After incubation with the compounds, cells were centrifuged, collected the supernatant and processed for ELISA to quantitate the amount of IL-2 secreted. A commercial ELISA kit (R&D Systems, Inc. Minneapolis, Minn., USA) was used to estimate the IL-2 concentrations. Amount of IL-2 secreted by cells stimulated with PHA was considered as a 100% maximal signal and the decrease in amount of IL-2 secreted by cells treated with the test compounds was expressed as percent inhibition of the maximal signal. The dose response data was analyzed using 4-parametric sigmoidal dose response (variable slope) curve-fit.
row,IC50 [nM],SMILES
1,100 to 1000,"Cc1c(-c2cnc(NC(=O)C3CCc4ccccc4C3)cn2)cccc1-c1nn(C)c(=O)o1 (racemic) [Example 138, (R/S)-N-(5-(2-Methyl-3-(4-methyl-5-oxo-4,5-dihydro-1,3,4-oxadiazol-2-yl)phenyl)pyrazin-2-yl)-1,2,3,4-tetrahydronaphthalene-2-carboxamide]"
2,< 100,Cc1ccc(C2=NOC(C)(C)C2=O)cc1-c1ccc(NC(=O)c2c(F)cccc2F)cc1 [Example 3]
3,100 to 1000,"Cc1ccc(C2=NOC(C)(C)C2=O)cc1-c1ccc(NC(=O)c2c(F)cccc2F)nc1 [Example 4, N-(5-(5-(5,5-Dimethyl-4-oxo-4,5-dihydroisoxazol-3-yl)-2-methylphenyl)pyridin-2-yl)-2,6-difluorobenzamide]"
4,100 to 1000,"CCc1ccc(C2=NOC(C)(C)C2=O)cc1-c1ccc(NC(=O)c2c(F)cccc2F)cn1 [Example 7, N-(6-(5-(5,5-dimethyl-4-oxo-4,5-dihydroisoxazol-3-yl)-2-ethylphenyl)pyridin-3-yl)-2,6-difluorobenzamide]"
5,100 to 1000,"CC(C)c1ccc(C2=NOC(C)(C)C2=O)cc1-c1cnc(NC(=O)c2c(F)cccc2F)cn1 [Example 8, N-(5-(5-(5,5-dimethyl-4-oxo-4,5-dihydroisoxazol-3-yl)-2-isopropylphenyl)pyrazin-2-yl)-2,6-difluorobenzamide]"
6,> 1000,"CC1(C)ON=C(c2ccc(C(C)(C)C)c(-c3ccc(NC(=O)c4c(F)cccc4F)cc3)c2)C1=O [Example 10, N-(2′-(tert-butyl)-5′-(5,5-dimethyl-4-oxo-4,5-dihydroisoxazol-3-yl)-[1,1′-biphenyl]-4-yl)-2,6-difluorobenzamide]"
7,100 to 1000,"CC1(C)ON=C(c2ccc(Cl)c(-c3ccc(NC(=O)c4c(F)cccc4F)cc3)c2)C1=O [Example 11, N-(2′-chloro-5′-(5,5-dimethyl-4-oxo-4,5-dihydroisoxazol-3-yl)-[1,1′-biphenyl]-4-yl)-2,6-difluorobenzamide]"
8,< 100,"COc1ccc(C2=NOC(C)(C)C2=O)cc1-c1ccc(NC(=O)c2snnc2C)cc1 [Example 16, N-(5′-(5,5-Dimethyl-4-oxo-4,5-dihydroisoxazol-3-yl)-2′-methoxy-[1,1′-biphenyl]-4-yl)-4-methyl-1,2,3-thiadiazole-5-carboxamide]"
9,> 1000,"COc1ccc(C2=NOC(C)(C)C2=O)cc1-c1ccc(NC(=O)c2c(F)cccc2F)nc1 [Example 17, N-(5-(5-(5,5-dimethyl-4-oxo-4,5-dihydroisoxazol-3-yl)-2-methoxyphenyl)pyridin-2-yl)-2,6-difluorobenzamide]"
10,100 to 1000,"COc1ccc(C2=NOC(C)(C)C2=O)cc1-c1ccc(NC(=O)c2c(F)cccc2F)cn1 [Example 18, N-(6-(5-(5,5-dimethyl-4-oxo-4,5-dihydroisoxazol-3-yl)-2-methoxyphenyl)pyridin-3-yl)-2,6-difluorobenzamide]"
11,< 100,"CC(=O)Nc1ccc(C2=NOC(C)(C)C2=O)cc1-c1ccc(NC(=O)c2c(F)cccc2F)cc1 [Example 19, N-(2′-acetamido-5′-(5,5-dimethyl-4-oxo-4,5-dihydroisoxazol-3-yl)-[1,1′-biphenyl]-4-yl)-2,6-difluorobenzamide]"
12,100 to 1000,"COC1C(c2ccc(C)c(-c3cnc(NC(=O)c4c(F)cccc4F)cn3)c2)=NOC1(C)C (stereo not drawn) [Example 23, 2,6-difluoro-N-(5-(5-(4-methoxy-5,5-dimethyl-4,5-dihydroisoxazol-3-yl)-2-methylphenyl)pyrazin-2-yl)benzamide]"
13,100 to 1000,"COC1C(c2ccc(C)c(-c3ccc(NC(=O)c4c(F)cccc4F)cc3)c2)=NOC1(C)C (stereo not drawn) [Example 24, 2,6-Difluoro-N-(5′-(4-methoxy-5,5-dimethyl-4,5-dihydroisoxazol-3-yl)-2′-methyl-[1,1′-biphenyl]-4-yl)benzamide]"
14,100 to 1000,"COc1c(C2=NOC(C)(C)C2=O)cccc1-c1ccc(NC(=O)c2c(F)cccc2F)cc1 [Example 31, N-(3′-(5,5-Dimethyl-4-oxo-4,5-dihydroisoxazol-3-yl)-2′-methoxy-[1,1′-bipheny;]-4-yl)-2,6-difluorobenzamide]"
15,< 100,"Cc1ccc(-c2nn(C)c(=O)o2)cc1-c1ccc(NC(=O)c2c(F)cccc2F)cc1 [Example 33, 2,6-Difluoro-N-(2′-methyl-5′-(4-methyl-5-oxo-4,5-dihydro-1,3,4-oxadiazol-2-yl)-[1,1′-biphenyl]-4-yl)benzamide]"
16,< 100,"CCn1nc(-c2ccc(C)c(-c3ccc(NC(=O)c4c(F)cccc4F)cc3)c2)oc1=O [Example 34, N-(5′-(4-Ethyl-5-oxo-4,5-dihydro-1,3,4-oxadiazol-2-yl)-2′-methyl-[1,1′-biphenyl]-4-yl)-2,6-difluorobenzamide]"
17,< 100,"COc1ccc(-c2nn(C)c(=O)o2)cc1-c1ccc(NC(=O)c2c(F)cccc2F)cc1 [Example 40, 2,6-Difluoro-N-(2′-methoxy-5′-(4-methyl-5-oxo-4,5-dihydro-1,3,4-oxadiazol-2-yl)[1,1′-biphenyl]-4-yl)benzamide]"

row,IC50 [nM],SMILES
1,< 100,"Cn1nc(-c2ccc(Cl)c(-c3ccc(NC(=O)c4c(F)cccc4F)cc3)c2)oc1=O [Example 46, N-(2′-Chloro-5′-(4-methyl-5-oxo-4,5-dihydro-1,3,4-oxadiazol-2-yl)-[1,1′-biphenyl]-4-yl)-2,6-difluorobenzamide]"
2,100 to 1000,Cc1ccc(C2=NOC(C)(C)C2)cc1-c1cnc(NC(=O)c2c(F)cccc2F)cn1 [Example 53]
3,100 to 1000,"Cc1ccc(C2=NOC3(CCCCC3)C2=O)cc1-c1ccc(NC(=O)c2c(F)cccc2F)cc1 [Example 58, 2,6-Difluoro-N-(2′-methyl-5′-(4-oxo-1-oxa-2-azaspiro[4.5]dec-2-en-3-yl)-[1,1′-biphenyl]-4-yl)benzamide]"
4,100 to 1000,"Cc1ccc(C2=NC(C)(C)CO2)cc1-c1ccc(NC(=O)c2c(F)cccc2F)cc1 [Example 61, N-(5′-(4,4-dimethyl-4,5-dihydrooxazol-2-yl)-2′-methyl-[1,1′-biphenyl]-4-yl)-2,6-difluorobenzamide]"
5,100 to 1000,"Cc1ccc(C2=NOC(C)(C)C2=O)cc1-c1cnc(NC(=O)c2cc(F)ccc2F)cn1 [Example 67, N-(5-(5-(5,5-Dimethyl-4-oxo-4,5-dihydroisoxazol-3-yl)-2-methylphenyl)pyrazine-2-yl)-2,5-difluorobenzamide]"
6,> 1000,"Cc1ccc(C2=NOC(C)(C)C2=O)cc1-c1cnc(NC(=O)c2ccc(F)cc2)cn1 [Example 69, N-(5-(5-(5,5-Dimethyl-4-oxo-4,5-dihydroisoxazol-3-yl)-2-methylphenyl)pyrazine-2-yl)-4-fluorobenzamide]"
7,100 to 1000,"Cc1ccc(C2=NOC(C)(C)C2=O)cc1-c1cnc(NC(=O)c2ccccc2Cl)cn1 [Example 78, 2-Chloro-N-(5-(5-(5,5-dimethyl-4-oxo-4,5-dihydroisoxazol-3-yl)-2-methylphenyl)pyrazin-2-yl)benzamide]"
8,< 100,"Cc1ccc(C2=NOC(C)(C)C2=O)cc1-c1cnc(NC(=O)c2c(F)cccc2Cl)cn1 [Example 80, 2-Chloro-N-(5-(5-(5,5-dimethyl-4-oxo-4,5-dihydroisoxazol-3-yl)-2-methylphenyl)pyrazin-2-yl)-6-fluorobenzamide]"
9,< 100,"Cc1ccc(-c2nn(C)c(=O)o2)cc1-c1cnc(NC(=O)c2c(F)cccc2F)cn1 [Example 87, 2,6-Difluoro-N-(5-(2-methyl-5-(4-methyl-5-oxo-4,5-dihydro-1,3,4-oxadiazol-2-yl)phenyl)pyrazin-2-yl)benzamide]"
10,< 100,"COc1ccc(-c2nn(C)c(=O)o2)cc1-c1cnc(NC(=O)c2c(F)cccc2F)cn1 [Example 93, 2,6-Difluoro-N-(5-(2-methoxy-5-(4-methyl-5-oxo-4,5-dihydro-1,3,4-oxadiazol-2-yl)phenyl)pyrazin-2-yl)benzamide]"
11,100 to 1000,"Cc1ccc(C2=NOC(C)(C)C2=O)cc1-c1cnc(NC(=O)c2c(Cl)cncc2Cl)cn1 [Example 103, 3,5-Dichloro-N-(5-(5-(5,5-dimethyl-4-oxo-4,5-dihydroisoxazol-3-yl)-2-methylphenyl)pyrazin-2-yl)isonicotinamide]"
12,100 to 1000,"Cc1ccc(C2=NOC(C)(C)C2=O)cc1-c1cnc(NC(=O)c2ccncc2F)cn1 [Example 107, N-(5-(5-(5,5-dimethyl-4-oxo-4,5-dihydroisoxazol-3-yl)-2-methylphenyl)pyrazin-2-yl)-3-fluoroisonicotinamide]"
13,100 to 1000,"Cc1ccc(C2=NOC(C)(C)C2=O)cc1-c1cnc(NC(=O)c2cccnc2C)cn1 [Example 113, N-(5-(5-(5,5-dimethyl-4-oxo-4,5-dihydroisoxazol-3-yl)-2-methylphenyl)pyrazin-2-yl)-2-methylnicotinamide]"
14,< 100,"Cc1ccc(C2=NOC(C)(C)C2=O)cc1-c1cnc(NC(=O)c2c(F)cncc2F)cn1 [Example 114, N-(5-(5-(5,5-dimethyl-4-oxo-4,5-dihydroisoxazol-3-yl)-2-methylphenyl)pyrazin-2-yl)-3,5-difluoroisonicotinamide]"
15,100 to 1000,"Cc1ccc(C2=NOC(C)(C)C2=O)cc1-c1cnc(C(=O)Nc2c(F)cccc2F)cn1 [Example 121, N-(2,6-Difluorophenyl)-5-(5-(5,5-dimethyl-4-oxo-4,5-dihydroisoxazol-3-yl)-2-methylphenyl)pyrazine-2-carboxamide]"
16,100 to 1000,"CC(C)Oc1ccc(C2=NOC(C)(C)C2=O)cc1-c1cnc(NC(=O)c2c(F)cccc2F)cn1 [Example 126, N-(5-(5-(5,5-dimethyl-4-oxo-4,5-dihydroisoxazol-3-yl)-2-isopropoxy-phenyl)pyrazin-2-yl)-2,6-difluorobenzamide]"
